Assay results: ChEMBL document CHEMBL5696441 (Nat Chem Biol, 2011)

What was measured:
[1] = biological target: cAMP-dependent protein kinase catalytic subunit beta (Homo sapiens) (UniProt P22694); experiment: Inhibition of PKAC-beta (unknown origin) assessed as remaining activity at 1 uM by Kinome scan method relative to control
[2] = biological target: T1, Serine/threonine-protein kinase D3 (Homo sapiens) (UniProt O94806); experiment: Inhibition of PRKD3 (unknown origin) assessed as remaining activity at 1 uM by Kinome scan method relative to control
T1 sequence (whole entry): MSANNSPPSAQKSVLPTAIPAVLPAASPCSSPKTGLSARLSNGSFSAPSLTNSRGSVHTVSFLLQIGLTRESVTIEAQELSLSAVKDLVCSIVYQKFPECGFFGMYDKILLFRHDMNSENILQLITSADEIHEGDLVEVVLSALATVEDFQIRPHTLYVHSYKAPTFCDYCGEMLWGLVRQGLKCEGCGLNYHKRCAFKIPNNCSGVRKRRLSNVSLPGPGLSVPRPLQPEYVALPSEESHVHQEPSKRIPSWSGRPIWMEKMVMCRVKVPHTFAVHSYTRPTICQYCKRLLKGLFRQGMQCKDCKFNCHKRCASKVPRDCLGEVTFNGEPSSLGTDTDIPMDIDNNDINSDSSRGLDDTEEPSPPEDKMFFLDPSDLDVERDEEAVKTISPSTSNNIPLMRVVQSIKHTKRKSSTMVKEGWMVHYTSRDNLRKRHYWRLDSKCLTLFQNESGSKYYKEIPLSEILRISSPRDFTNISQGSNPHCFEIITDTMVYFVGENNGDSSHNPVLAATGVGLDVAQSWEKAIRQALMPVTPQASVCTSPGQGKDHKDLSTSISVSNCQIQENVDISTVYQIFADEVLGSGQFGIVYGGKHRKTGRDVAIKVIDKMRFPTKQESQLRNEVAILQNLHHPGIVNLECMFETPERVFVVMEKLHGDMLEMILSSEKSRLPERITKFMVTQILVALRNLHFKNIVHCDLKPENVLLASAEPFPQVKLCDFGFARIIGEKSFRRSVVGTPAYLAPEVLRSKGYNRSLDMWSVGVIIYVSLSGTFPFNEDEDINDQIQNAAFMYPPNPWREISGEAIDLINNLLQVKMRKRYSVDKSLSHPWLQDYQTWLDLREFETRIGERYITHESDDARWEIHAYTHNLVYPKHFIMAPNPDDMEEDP

[3] = biological target: T2, Ephrin type-A receptor 1 (Homo sapiens) (UniProt P21709); experiment: Inhibition of EPHA1 (unknown origin) assessed as remaining activity at 1 uM by Kinome scan method relative to control
T2 sequence (whole entry): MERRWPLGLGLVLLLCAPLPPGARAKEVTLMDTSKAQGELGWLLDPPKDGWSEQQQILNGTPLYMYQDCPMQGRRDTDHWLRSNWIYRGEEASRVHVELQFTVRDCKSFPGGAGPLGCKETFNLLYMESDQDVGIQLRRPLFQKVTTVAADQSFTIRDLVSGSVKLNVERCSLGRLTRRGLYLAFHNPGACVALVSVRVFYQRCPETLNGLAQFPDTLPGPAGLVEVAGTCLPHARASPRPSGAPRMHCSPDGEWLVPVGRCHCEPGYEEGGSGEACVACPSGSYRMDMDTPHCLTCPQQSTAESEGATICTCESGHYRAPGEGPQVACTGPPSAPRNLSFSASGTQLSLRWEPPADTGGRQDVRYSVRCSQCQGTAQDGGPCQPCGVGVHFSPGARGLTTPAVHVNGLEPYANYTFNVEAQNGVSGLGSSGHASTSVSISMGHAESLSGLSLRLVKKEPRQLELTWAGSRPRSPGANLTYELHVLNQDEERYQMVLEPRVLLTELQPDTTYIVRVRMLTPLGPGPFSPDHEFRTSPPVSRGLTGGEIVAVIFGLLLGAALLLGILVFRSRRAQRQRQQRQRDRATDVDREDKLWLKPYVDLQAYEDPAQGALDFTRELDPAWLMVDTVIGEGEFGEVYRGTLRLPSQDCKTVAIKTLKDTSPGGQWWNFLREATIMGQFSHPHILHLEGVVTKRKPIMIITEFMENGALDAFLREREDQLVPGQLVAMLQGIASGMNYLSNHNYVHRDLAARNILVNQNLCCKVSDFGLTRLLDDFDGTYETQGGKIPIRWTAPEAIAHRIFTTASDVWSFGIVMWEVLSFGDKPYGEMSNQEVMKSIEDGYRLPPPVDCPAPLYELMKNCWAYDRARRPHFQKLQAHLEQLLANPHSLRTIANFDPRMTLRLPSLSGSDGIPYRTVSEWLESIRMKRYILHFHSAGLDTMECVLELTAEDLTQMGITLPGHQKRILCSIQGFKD

[4] = biological target: Serine/threonine-protein kinase 32B (Homo sapiens) (UniProt Q9NY57); experiment: Inhibition of YANK2 (unknown origin) assessed as remaining activity at 1 uM by Kinome scan method relative to control
[5] = biological target: T3, Muscle, skeletal receptor tyrosine-protein kinase (Homo sapiens) (UniProt O15146); experiment: Inhibition of MUSK (unknown origin) assessed as remaining activity at 1 uM by Kinome scan method relative to control
T3 sequence (whole entry): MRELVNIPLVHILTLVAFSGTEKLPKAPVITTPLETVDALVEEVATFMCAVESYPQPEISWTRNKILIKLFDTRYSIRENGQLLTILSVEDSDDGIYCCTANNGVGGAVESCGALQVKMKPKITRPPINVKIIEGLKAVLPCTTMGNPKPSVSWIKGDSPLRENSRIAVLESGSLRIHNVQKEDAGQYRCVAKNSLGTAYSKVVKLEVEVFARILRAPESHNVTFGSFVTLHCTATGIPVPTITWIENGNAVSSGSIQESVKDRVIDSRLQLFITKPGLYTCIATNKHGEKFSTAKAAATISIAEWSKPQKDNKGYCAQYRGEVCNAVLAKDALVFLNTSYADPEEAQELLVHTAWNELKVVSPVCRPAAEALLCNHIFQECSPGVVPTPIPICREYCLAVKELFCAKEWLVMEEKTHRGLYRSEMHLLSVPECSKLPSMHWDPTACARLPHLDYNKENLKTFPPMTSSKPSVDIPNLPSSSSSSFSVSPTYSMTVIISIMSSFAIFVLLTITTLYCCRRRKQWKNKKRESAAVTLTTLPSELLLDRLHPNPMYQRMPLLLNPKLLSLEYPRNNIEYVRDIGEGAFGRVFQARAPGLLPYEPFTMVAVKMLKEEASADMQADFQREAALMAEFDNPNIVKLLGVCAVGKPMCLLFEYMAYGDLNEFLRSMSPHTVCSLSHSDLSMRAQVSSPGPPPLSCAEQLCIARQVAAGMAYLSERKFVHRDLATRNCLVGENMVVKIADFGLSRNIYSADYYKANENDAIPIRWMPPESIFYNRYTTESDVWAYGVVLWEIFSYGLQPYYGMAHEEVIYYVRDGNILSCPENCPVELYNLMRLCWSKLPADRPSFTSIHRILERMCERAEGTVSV

[6] = biological target: Serine/threonine-protein kinase STK11 (Homo sapiens) (UniProt Q15831); experiment: Inhibition of LKB1 (unknown origin) assessed as remaining activity at 1 uM by Kinome scan method relative to control
Sequence of Serine/threonine-protein kinase STK11 (Homo sapiens) (Q15831 whole entry): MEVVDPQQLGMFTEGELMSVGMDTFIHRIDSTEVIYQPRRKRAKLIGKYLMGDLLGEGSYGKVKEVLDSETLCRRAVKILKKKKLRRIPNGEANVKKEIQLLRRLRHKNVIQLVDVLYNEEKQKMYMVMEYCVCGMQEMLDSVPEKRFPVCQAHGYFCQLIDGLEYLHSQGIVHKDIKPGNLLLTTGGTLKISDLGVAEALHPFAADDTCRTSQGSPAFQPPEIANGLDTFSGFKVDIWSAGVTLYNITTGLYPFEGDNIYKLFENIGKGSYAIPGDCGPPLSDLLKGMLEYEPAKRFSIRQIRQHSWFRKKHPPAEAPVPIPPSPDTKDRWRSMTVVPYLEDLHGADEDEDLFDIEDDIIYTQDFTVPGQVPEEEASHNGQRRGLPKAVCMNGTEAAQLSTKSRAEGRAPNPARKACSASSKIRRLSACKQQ

Sequence of Serine/threonine-protein kinase 32B (Homo sapiens) (Q9NY57 whole entry): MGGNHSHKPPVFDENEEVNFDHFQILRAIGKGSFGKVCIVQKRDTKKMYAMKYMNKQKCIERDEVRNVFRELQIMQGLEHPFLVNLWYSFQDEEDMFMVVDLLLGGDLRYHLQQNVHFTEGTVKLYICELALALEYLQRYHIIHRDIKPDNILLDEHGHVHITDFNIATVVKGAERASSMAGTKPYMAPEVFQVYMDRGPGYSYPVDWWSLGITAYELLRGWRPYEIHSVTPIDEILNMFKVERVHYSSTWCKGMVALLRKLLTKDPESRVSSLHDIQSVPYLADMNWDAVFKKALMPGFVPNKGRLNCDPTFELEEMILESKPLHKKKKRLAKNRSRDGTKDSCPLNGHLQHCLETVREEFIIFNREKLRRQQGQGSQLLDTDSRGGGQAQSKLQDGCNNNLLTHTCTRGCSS

SMILES: Nc1ccccc1Nc1ccc2c(c1)CCc1ccccc1C2=O
- Activity [1]: 88%
- Activity [2]: 77%
- Activity [3]: 98%
- Activity [4]: 89%
- Activity [5]: 86%
- Activity [6]: 98%

SMILES: O=C1c2ccc(Nc3ccc(F)cc3F)cc2CCc2ccc(OC[C@H](O)CO)cc21 [Skepinone-L]
- Activity [1]: 74%
- Activity [2]: 91%
- Activity [3]: 91%
- Activity [4]: 98%
- Activity [5]: 90%
- Activity [6]: 100%
